Assay results from patent US4958010A, “Epipodophyllotoxin glucoside lactam derivatives” (Bristol-Myers Company, priority 1989, dated 1990).
≈ marks a conversion by molar mass, not a printed value. Where “and” joins values, the source holds several entries; their conditions need not be identical. Equal entries are not always repeated.

How the values were obtained:
Assay type in all cases: cell-based
Moser human colon = experiment: in vitro cytotoxicity assay, Moser human colon; details: concentration required to inhibit cell growth by 50%, four-fold serial dilution, replicate determinations on separate lines; for IC50: Homo sapiens
Procedure: (§1) Representative compounds of the present invention were also evaluated in in vitro cytotoxicity assay against various murine and human tumor cell lines. The in vitro cytotoxicity assay involved growing various mammalian tumor cells, including human tumor cells, on microtitre plates employing established tissue culture methods. The concentration of each compound required to inhibit cell growth by 50% (IC50) was then determined by four-fold serial dilution technique. Tumor cells of the following types were employed for each compound tested: B16-F10 murine melanoma; Moser human colon; SW900 human lung; and two human colon tumor cell lines namely HCT-116, and HCT/VP35, the latter being resistant to etoposide (VP). […] The in vitro data may also be evaluated in terms of potency ratio which is defined as the ratio of IC50 against an etoposide-resistant cell-line to IC50 against an etoposide-sensitive cell-line.

SW900 human lung = experiment: in vitro cytotoxicity assay, SW900 human lung; details: four-fold serial dilution, replicate determinations on separate lines; for IC50: Homo sapiens, SW900, concentration required to inhibit cell growth by 50%; for IC50 SW900: concentration required to inhibit cell growth by 50%
Procedure: as §1

HCT/VP35 = experiment: in vitro cytotoxicity assay, HCT/VP35 human colon tumor resistant to etoposide; details: for IC50: Homo sapiens, HCT/VP35, etoposide-resistant line; for IC50 / IC50 HCT/VP35: concentration required to inhibit cell growth by 50%, four-fold serial dilution, replicate determinations on separate lines; for IC50 HCT/VP35: etoposide-resistant line; for potency ratio IC50 HCT/VP35 : IC50 HCT-116: ratio of IC50 against etoposide-resistant cell line to IC50 against etoposide-sensitive cell line, same experiment
Procedure: as §1

HCT-116 = experiment: in vitro cytotoxicity assay, HCT-116 human colon tumor; details: four-fold serial dilution, replicate determinations on separate lines; for IC50: Homo sapiens, HCT-116, concentration required to inhibit cell growth by 50%; for IC50 HCT-116: concentration required to inhibit cell growth by 50%
Procedure: as §1

B16-F10 murine melanoma = experiment: in vitro cytotoxicity assay, B16-F10 murine melanoma; details: four-fold serial dilution, replicate determinations on separate lines; for IC50: Mus musculus, B16-F10, concentration required to inhibit cell growth by 50%; for IC50 B16-F10: concentration required to inhibit cell growth by 50%
Procedure: as §1

| SMILES | IC50 (Moser human colon) [µg/mL] | IC50 Moser (Moser human colon) | IC50 (SW900 human lung) [µg/mL] | IC50 SW900 (SW900 human lung) | IC50 (HCT/VP35) [µg/mL] | IC50 HCT/VP35 (HCT/VP35) | IC50 (HCT-116) [µg/mL] | IC50 HCT-116 (HCT-116) | IC50 (B16-F10 murine melanoma) [µg/mL] | IC50 B16-F10 (B16-F10 murine melanoma) | potency ratio IC50 HCT/VP35 : IC50 HCT-116 (HCT/VP35) |
| --- | --- | --- | --- | --- | --- | --- | --- | --- | --- | --- | --- |
| COc1cc([C@@H]2c3cc4c(cc3[C@@H](O[C@@H]3O[C@@H]5CO[C@@H](C)O[C@H]5[C@H](O)[C@H]3O)[C@H]3CN(N=Cc5ccccc5)C(=O)[C@H]23)OCO4)cc(OC)c1O [Example 3, 6H-Pyrrolo[3',4':6,7]naphtho[2,3-d]-1,3-dioxole-6-one, 5,5a,7,8,8a,9-hexahydro-9-[(4,6-O-ethylidene-β-D-glucopyranosyl)oxy]-5-[(4-hydroxy-3,5-dimethoxy)phenyl]-7-[(phenylmethylene)amino][5R-[5α,5aβ,8aα,9β(R*)]-] | 56.4 (≈ 81.7 µM) | 73.81 µg/mL (≈ 107 µM) | 36.5 (≈ 52.8 µM) | 48.73 µg/mL (≈ 70.6 µM) | 38.3 (≈ 55.5 µM) | 42.37 µg/mL (≈ 61.3 µM) | 23.8 (≈ 34.4 µM) | 20.04 µg/mL (≈ 29 µM) | 10.3 (≈ 15 µM) | 17.80 µg/mL (≈ 25.8 µM) |  |
| COc1cc([C@@H]2c3cc4c(cc3[C@@H](O[C@@H]3O[C@@H]5CO[C@@H](C)O[C@H]5[C@H](O)[C@H]3O)[C@@H](CO)[C@@H]2C(N)=O)OCO4)cc(OC)c1O (relative stereo) [Example 2, Naphtho[2,3-d]-1,3-dioxole-6-carboxamide, 5,6,7,8-tetrahydro-8-[(4,6-0-ethylidene-β-D-glucopyranosyl)oxy]-5-[(4-hydroxy-3,5-dimethoxy)phenyl]-7-(hydroxymethyl)-, [5Rα,6α,7β,8β(R*)]-] | 107 (≈ 177 µM) | 115.67 µg/mL (≈ 191 µM) | 106 (≈ 175 µM) | 120.54 µg/mL (≈ 199 µM) | > 250 |  | 78.6 (≈ 130 µM) | 96.28 µg/mL (≈ 159 µM) | 70.6 (≈ 117 µM) | 93.03 µg/mL (≈ 154 µM) |  |
| CCCCCCCC=NN1C[C@H]2[C@H](C1=O)[C@H](c1cc(OC)c(O)c(OC)c1)c1cc3c(cc1[C@H]2O[C@@H]1O[C@@H]2CO[C@@H](C)O[C@H]2[C@H](O)[C@H]1O)OCO3 [Example 9, 6H-Pyrrolo[3',4':6,7]naphtho[2,3-d]-1,3-dioxole-6-one, 5,5a,7,8,8a,9-hexahydro-9-[(4,6-O-ethylidene-β-D-glucopyranosyl)oxy]-5-[(4-hydroxy-3,5-dimethoxy)phenyl]-7-[(octylidene)amino]-, [5R-[5α,5aβ,8aα,9β(R*)]-] | 11.5 (≈ 16.1 µM) | 15.09 µg/mL and 15.98 µg/mL |  | 21.21 µg/mL and 52.18 µg/mL and 95.53 µg/mL |  | 6.85 µg/mL and 23.65 µg/mL |  | 3.39 µg/mL and 4.68 µg/mL and 16.63 µg/mL | 6.64 (≈ 9.32 µM) | 6.70 µg/mL and 10.21 µg/mL |  |
| CCCCCCCC(=O)Oc1c(OC)cc([C@@H]2c3cc4c(cc3[C@@H](O[C@@H]3O[C@@H]5CO[C@@H](C)O[C@H]5[C@H](O)[C@H]3O)[C@H]3CNC(=O)[C@H]23)OCO4)cc1OC [Example 11, 6H-Pyrrolo[3',4':6,7]naphtho[2,3-d]-1,3-dioxole-6-one, 5,5a,7,8,8a,9-hexahydro-9[(4,6-O-ethylidene-β-D-glucopyranosyl)oxy]-5-[(3,5-dimethoxy-4-octanoyloxy)phenyl], [5R-[5α,5aβ,8aα,9β(R*)]-] | 20.2 (≈ 28.3 µM) | 25.92 µg/mL (≈ 36.3 µM) | 12.3 (≈ 17.3 µM) | 12.48 µg/mL (≈ 17.5 µM) | 18.7 (≈ 26.2 µM) | 25.22 µg/mL (≈ 35.3 µM) | 17.3 (≈ 24.2 µM) | 18.33 µg/mL (≈ 25.7 µM) | 21 (≈ 29.4 µM) | 20.69 µg/mL (≈ 29 µM) | 1 |
| CCCCCCCC(=O)Oc1c(OC)cc([C@@H]2c3cc4c(cc3[C@@H](O[C@@H]3O[C@@H]5CO[C@@H](C)O[C@H]5[C@H](O)[C@H]3O)[C@H]3CN(N=Cc5ccccc5)C(=O)[C@H]23)OCO4)cc1OC [Example 10, 6H-Pyrrolo[3',4':6,7]naphtho[2,3-d]-1,3-dioxole-6-one, 5,5a,7,8,8a,9-hexahydro-9-[(4,6-O-ethylidene-β-D-glucopyranosyl)oxy]-5-[(3,5-dimethoxy-4-octanoyloxy)phenyl]-7-[(phenylmethylene)amino]-, [5R-[5α,5aβ,8aα, 9β(R*)]-] | 25.6 (≈ 31.3 µM) | 16.38 µg/mL (≈ 20.1 µM) | 21.2 (≈ 26 µM) | 19.82 µg/mL (≈ 24.3 µM) | 25.6 (≈ 31.3 µM) | 13.50 µg/mL (≈ 16.5 µM) | 17.3 (≈ 21.1 µM) | 16.05 µg/mL (≈ 19.6 µM) | 23.6 (≈ 29 µM) | 16.76 µg/mL (≈ 20.5 µM) | 1 |
| COc1cc([C@@H]2c3cc4c(cc3[C@@H](O[C@@H]3O[C@@H]5CO[C@@H](C)O[C@H]5[C@H](O)[C@H]3O)[C@H]3CN(N=C(C)C)C(=O)[C@H]23)OCO4)cc(OC)c1O (relative stereo) [Example 8, 6H-Pyrrolo[3',4':6,7]naphtho[2,3-d]-1,3-dioxole-6-one, 5,5,a,7,8,8a,9-hexahydro-9-[(4,6-O-ethylidene-β-D-glucopyranosyl)oxy]-5-[(4-hydroxy-3,5-dimethoxy)phenyl]-7-[(2-propylidene)amino]-, [5 R-[5α,5aβ,8aα,9β(R*)]-] |  | 91.26 µg/mL and 123.63 µg/mL and > 250 µg/mL | > 250 |  | 103 (≈ 160 µM) | 96.26 µg/mL (≈ 150 µM) | 69.4 (≈ 108 µM) | 78.90 µg/mL and 108.89 µg/mL | 43.2 (≈ 67.3 µM) | 61.29 µg/mL and 74.21 µg/mL |  |
| COc1cc([C@@H]2c3cc4c(cc3[C@@H](O[C@@H]3O[C@@H]5CO[C@@H](C)O[C@H]5[C@H](O)[C@H]3O)[C@H]3CN(NCc5ccccc5)C(=O)[C@H]23)OCO4)cc(OC)c1O [Example 4, 6H-Pyrrolo[3',4':6,7]naphtho[2,3-d]-1,3-dioxole-6-one, 5,5a,7,8,8a,9-hexahydro-9-[(4,6-O-ethylidene-β-D-glucopyranosyl)oxy]-5-[(4-hydroxy-3,5-dimethoxy)phenyl]-7-[(phenylmethyl)amino]-, [5R-[5α,5aβ,8aα,9β(R*)]-] |  | 122.94 µg/mL and > 250 µg/mL | > 250 |  | > 250 |  | 105 (≈ 151 µM) | 113.88 µg/mL (≈ 164 µM) | 73.4 (≈ 106 µM) | 95.19 µg/mL (≈ 137 µM) |  |
| COc1cc([C@@H]2c3cc4c(cc3[C@@H](O[C@@H]3O[C@@H]5CO[C@@H](C)O[C@H]5[C@H](O)[C@H]3O)[C@H]3CN(N=Cc5ccc([N+](=O)[O-])cc5)C(=O)[C@H]23)OCO4)cc(OC)c1O [Example 6, 6H-Pyrrolo[3',4':6,7]naphtho[2,3-d]-1,3-dioxole-6-one, 5,5a,7,8,8a,9-hexahydro-9-[(4,6-O-ethylidene-δ-D-glucopyranosyl)oxy]-5-[(4-hydroxy-3,5-dimethoxy)phenyl]-7-[[(4-nitrophenyl)methylene]amino], [5R-[5α,5aβ,8aα,9β(R*)]-] | > 250 |  | > 250 |  | > 250 |  | 83.6 (≈ 114 µM) | 60.66 µg/mL (≈ 82.5 µM) |  | 7.73 µg/mL and 16.11 µg/mL |  |
| COc1cc([C@@H]2c3cc4c(cc3[C@@H](O[C@@H]3O[C@@H]5CO[C@@H](C)O[C@H]5[C@H](O)[C@H]3O)[C@H]3CNC(=O)[C@H]23)OCO4)cc(OC)c1O [Example 5, 6H-Pyrrolo[3',4':6,7]naphtho[2,3-d]-1,3-dioxole-6-one,5,5a,7,8,8a,9-hexahydro-9-[(4,6-O-ethylidene-β-D-glucopyranosyl)oxy]-5-[(4-hydroxy-3,5-dimethoxy)phenyl]-, [5R-[5α,5aα,8aα, 9β(R*)]-] | 81.1 (≈ 138 µM) | 102.51 µg/mL (≈ 174 µM) | 107 (≈ 183 µM) | 123.53 µg/mL (≈ 210 µM) | 103 (≈ 175 µM) | 111.78 µg/mL (≈ 190 µM) | 56.1 (≈ 95.5 µM) | 66.52 µg/mL (≈ 113 µM) |  | 27.92 µg/mL and 72.27 µg/mL |  |
